Test results: ChEMBL document CHEMBL1134242 (Bioorg Med Chem Lett, 2001)

How the values were obtained:
[1] = target: Sodium-dependent dopamine transporter (Rattus norvegicus, UniProt P23977); assay: Ability to inhibit binding of [3H]WIN-35428 to dopamine transporter in rat caudate putamen; format: tissue-based
Rattus norvegicus = species on record: Rattus norvegicus; assay: Ability to inhibit high-affinity uptake of [3H]DA into striatal nerve endings (synaptosomes); format: functional; conditions: Brain
[2] = target: Sodium-dependent serotonin transporter (Rattus norvegicus, UniProt P31652); assay: Ability to inhibit binding of [3H]paroxetine to Serotonin transporter in rat caudate putamen; format: tissue-based
Sodium-dependent serotonin transporter, sequence (P31652 whole entry): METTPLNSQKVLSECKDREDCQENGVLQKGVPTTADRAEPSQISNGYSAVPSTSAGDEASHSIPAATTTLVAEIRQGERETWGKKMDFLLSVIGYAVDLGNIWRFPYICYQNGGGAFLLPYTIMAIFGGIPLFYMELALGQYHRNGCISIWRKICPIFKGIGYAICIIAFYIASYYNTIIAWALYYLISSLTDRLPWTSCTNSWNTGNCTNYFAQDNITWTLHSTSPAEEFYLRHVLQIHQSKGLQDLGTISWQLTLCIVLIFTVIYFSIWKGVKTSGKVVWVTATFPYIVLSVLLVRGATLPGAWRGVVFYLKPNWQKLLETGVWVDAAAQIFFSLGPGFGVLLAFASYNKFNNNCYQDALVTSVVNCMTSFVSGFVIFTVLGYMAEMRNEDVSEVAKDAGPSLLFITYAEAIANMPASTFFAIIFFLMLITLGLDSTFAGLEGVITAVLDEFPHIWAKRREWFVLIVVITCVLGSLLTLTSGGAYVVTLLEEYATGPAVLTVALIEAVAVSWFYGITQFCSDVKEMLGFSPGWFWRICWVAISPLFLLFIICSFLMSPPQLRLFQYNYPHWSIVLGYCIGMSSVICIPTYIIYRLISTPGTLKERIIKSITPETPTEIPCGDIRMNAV

Sodium-dependent dopamine transporter, sequence (P23977 whole entry): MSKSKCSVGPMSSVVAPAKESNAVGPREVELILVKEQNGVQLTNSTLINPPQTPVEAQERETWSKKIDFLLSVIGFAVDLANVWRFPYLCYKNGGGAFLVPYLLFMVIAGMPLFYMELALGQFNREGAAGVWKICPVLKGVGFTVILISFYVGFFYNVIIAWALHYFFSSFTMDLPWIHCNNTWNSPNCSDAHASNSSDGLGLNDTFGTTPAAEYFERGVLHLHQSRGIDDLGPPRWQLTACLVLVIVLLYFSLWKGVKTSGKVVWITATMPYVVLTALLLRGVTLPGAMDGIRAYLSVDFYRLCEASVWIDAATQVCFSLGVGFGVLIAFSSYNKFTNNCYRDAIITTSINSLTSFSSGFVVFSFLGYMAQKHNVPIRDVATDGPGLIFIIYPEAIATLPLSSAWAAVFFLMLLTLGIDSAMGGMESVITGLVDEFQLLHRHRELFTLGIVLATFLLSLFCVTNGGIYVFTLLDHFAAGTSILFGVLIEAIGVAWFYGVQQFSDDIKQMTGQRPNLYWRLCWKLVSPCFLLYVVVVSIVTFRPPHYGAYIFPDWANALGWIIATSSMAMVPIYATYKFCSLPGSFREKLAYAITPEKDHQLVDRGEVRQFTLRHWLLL

Row | SMILES | IC50 [1] [µM] | IC50 (Rattus norvegicus) [µM] | IC50 [2] [µM]
1 | Fc1ccc(C(O[C@H]2C[C@H]3CC[C@@H](C2)O3)c2ccc(F)cc2)cc1 | 2 |  | 
2 | CO[C@H]1CC2C[C@H](OC(c3ccc(F)cc3)c3ccc(F)cc3)CC1N2C (stereo partly drawn) | 0.095 | 0.165 | > 100
3 | c1ccc(C(O[C@H]2C[C@H]3CC[C@@H](C2)O3)c2ccccc2)cc1 | > 10 |  | 
4 | COC(=O)[C@@H]1C2CC[C@@H](C[C@@H]1OC(=O)c1ccccc1)N2C (single isomer, unassigned) [COCAINE] |  | 0.208 | 
5 | CO[C@H]1CC2C[C@H](OC(c3ccccc3)c3ccc(Cl)cc3)CC1N2C (stereo partly drawn) | 0.75 | 0.519 | > 100
6 | CO[C@H]1CC2C[C@H](OC(c3ccccc3)c3ccccc3)CC1N2C (mixture of isomers) | 0.65 | 2.28 | > 100
7 | CO[C@@H]1CC2C[C@@H](OC(c3ccccc3)c3ccc(Cl)cc3)CC1N2C (stereo partly drawn) | 0.032 | 0.179 | > 100
8 | CO[C@@H]1CC2C[C@@H](OC(c3ccc(F)cc3)c3ccc(F)cc3)CC1N2C (stereo partly drawn) | 0.025 | 0.104 | > 100
